# Reference: publication doi:10.1101/2025.03.14.643404, “A Bivalent Molecular Glue Linking Lysine Acetyltransferases to Oncogene-induced Cell Death” (bioRxiv, 2025)
# “Also recorded” adds a separate entry of the source.
# Columns and labels:
# [1] = tested on: SUDHL5^TRE−3xFLAG-MYC cells; assay: Viability of SUDHL5 TRE-3xFLAG-MYC cells, 72 h; type: cell-based; conditions: Homo sapiens
# Experimental: Thirty thousand cells were seeded in 100 μl of media per well of a 96-well plate and treated with drug for the indicated times and doses. A resazurin-based indicator of cell health (PrestoBlue; P50200, Thermo Fisher) was added for 1.5 h at 37°C, at which point the fluorescence ratio at 560/590 nm was recorded (Tecan Spark). The background fluorescence was subtracted, and the signal was normalized to DMSO-treated cells. IC50 measurements on cell lines were calculated using at least three biological replicates (separate cell passages). Fit of dose–response curves to data and statistical analysis was performed using GraphPad PRISM using the four-parameter log(inhibitor) vs response function.
# An N-terminal fusion of 3xFLAG followed by a GGSGS linker fused to the coding sequence of human c-MYC (NM_002467.6)) was subcloned into pCW57-MCS1–2A-MCS2 (a gift from Adam Karpf (Addgene plasmid 71782; http://n2t.net/addgene:71782; RRID:Addgene_71782)).
# This construct is the same used for BCL6 nanoBRET studies above. Lentivirus was produced from HEK293T cells via polyethylenimine transfection. Briefly, cells were transfected using 2nd-generation packaging plasmids and media replaced after 24 hours. […]
# CBP^BD-BCL6^BTB = assay: TR-FRET ternary assay CBPBD-BCL6BTB; type: binding, human
# Experimental: 10 μL reactions containing 10 nM 6x-His- p300^BD or 6x-His-CBP^BD, 200 nM BiotinylatedAvi-BCL6^BTB, 20 nM streptavidin-FITC (SA1001, Thermo), and 1:400 anti-6x-His-terbium (PerkinElmer 61HI2TLF) in buffer containing 20 mM HEPES pH 7.5, 150 mM NaCl, 0.1% BSA, 0.1% NP-40, and 1 mM TCEP were plated in low-volume 384 well plates. Drugs were digitally dispensed (Tecan D300e) into protein-containing wells, and the plate was allowed to incubate in the dark for 1 hour at room temperature. Emission at 490 nm (terbium) and 520 nm (FITC) was measured on a PHERAstar FS plate reader (BMG Labtech) upon excitation with 337 nm. The ratio of signal at 520 nm to 490 nm was calculated and normalized to DMSO-treated protein.
# DB = assay: Cell viability, 7 days compound treatment (Cell Titer-Glo), DB; type: cell-based; conditions: Homo sapiens, 168 h, read-out: IC50 of antiproliferation
# Experimental: Fifteen thousand cells were seeded in 100 μl of media per well of a U-bottom 96-well plate and treated with digitally dispensed drugs (Tecan D300e) for the indicated times and doses. After 96 hours, plates were centrifuged for 750 rpm for 3 minutes, and old media was exchanged for 100 μl of fresh media. Drug treatment was then repeated at the indicated doses. 72 hours following media change, cells were transferred to 96 well flat-bottom opaque plates. Viability was measured by adding 25 μL Cell Titer-Glo reagent (Promega G7570) to each well and luminescence was measured (BMG Labtech Pherastar FS). The background luminescence was subtracted, and the signal was normalized to DMSO-treated cells. IC50 measurements on cell lines were calculated using at least three biological replicates by separate cell passages. Fit of dose–response curves to data and statistical analysis was performed using GraphPad PRISM using the four-parameter log(inhibitor) vs response function.
# SUDHL5 cells = assay: TUNEL and total DNA content co-staining of SUDHL5; type: cell-based, human; conditions: SUDHL5, 10 nM
# Experimental: 1 million SUDHL5 cells were plated in 6 mL of media in 6-well plates and treated with compound for indicated timepoints and doses. 1.2 million total cells were counted, washed in PBS, fixed in 4% paraformaldehyde/PBS at a concentration of 10M/mL for 15 minutes at room temperature in the dark, washed in PBS, and stored in 70% ethanol at −20°C until ready for processing (at least 24 hours). DNA breaks in fixed cells were labeled with bromolated deoxyuridine (Br-dUTP or BrdU) by incubation with deoxynucleotidyl transferase (TdT) for 60 min at 37°C, washed, and stained with FITC-labeled anti-BrdU antibodies for 30 min at room temperature in the dark (BD 556405). Cells were resuspended in 1% BSA/PBS with 1:100 RNaseA (Invitrogen 12091021) and co-stained with 7-AAD for 30 min at room temperature in the dark (BD 559925). The suspension was gently agitated by shaking and analyzed by flow cytometry within 1 hour (BD Accuri).
# [2] = tested on: primary human fibroblasts; assay: Viability of primary human fibroblasts, 72 h; type: cell-based; conditions: compared with SUDHL5
# Experimental: Lymphoma and leukemia cells were grown in RPMI-1640 medium (ATCC 30–2001) supplemented with 10% fetal bovine serum (FBS) and 1% 100X Penicillin-Streptomycin (Gibco, 15140122) in incubators at 37°C with 5% carbon dioxide. KARPAS422 cells were obtained from Sigma (06101702) and DB and SUDHL5 were obtained from the American Tissue Culture Collection (ATCC). The Daudi cell line, originally from ATCC, was generously provided by R. Levy’s laboratory at Stanford University. Raji cells, also from ATCC, were a gift from J. Cochran’s laboratory at Stanford University. TOLEDO and K562 cells were originally obtained from ATCC and were kindly shared by A. Alizadeh’s laboratory at Stanford University. […]
# Thirty thousand cells were seeded in 100 μl of media per well of a 96-well plate and treated with drug for the indicated times and doses. A resazurin-based indicator of cell health (PrestoBlue; P50200, Thermo Fisher) was added for 1.5 h at 37°C, at which point the fluorescence ratio at 560/590 nm was recorded (Tecan Spark). The background fluorescence was subtracted, and the signal was normalized to DMSO-treated cells. IC50 measurements on cell lines were calculated using at least three biological replicates (separate cell passages). […]
structure (smiles),measurement,setting,value
CNC(=O)COc1cc2cc(Nc3nc(N4CCC(C(=O)N5CCN(CCC(=O)N6CCC(n7nc(N8CCCc9cc(-c%10cnn(C)c%10)c(C(F)F)cc98)c8c7CCN(C(=O)NC)C8)CC6)CC5)CC4)ncc3Cl)cc(OC)c2n(C)c1=O [TCIP3],IC50,"[1]; SU-DHL-5, + dox (1 μg/mL doxycycline 24 h prior)",~7.5 nM
same,IC50,"[1]; SU-DHL-5, − dox",~2 nM
same,"TR-FRET signal AUC, times higher than NEG1",CBP^BD-BCL6^BTB,16 times
same,"TR-FRET signal AUC, times higher than NEG2",CBP^BD-BCL6^BTB,25 times
same,IC50,DB,9.8 nM
same,predominant cellular effect after 24 hours,SUDHL5 cells,arrest cells in G1
same,cytotoxicity,[2],substantially reduced cytotoxicity; also recorded: without exhibiting toxicity
